Laboratory results reported in patent US20240391940A1, “FUSED RING-CONTAINING COMPOUND, APPLICATION THEREOF, AND COMPOSITION CONTAINING SAME” (GenEros Biopharma Ltd., priority 2020, published 2024).
Several values for one entry are separate records, joined by “and”; a condition that tells them apart may be missing. Identical values can stand only once. Entries after “also recorded” stand apart in the source; their conditions may differ.

What was measured:
female BALB/c mice = test: Acute toxicity, single administration in mice; assay type: in vivo
Description: • Part I: Single administration. A total of 6 mice were used. They were randomly divided into 2 groups: the vehicle control and GEN1-284s (1000 mg/kg), dosed once by oral gavage and observed for 6 days, and changes in body weight and activities were recorded. • Part II: Multiple administrations. This experiment used a total of 6 mice. They were divided into two groups of 3: a GEN1-284s-1000 mg/kg group and a GEN1-284s-300 mg/kg group, and were intragastrically given GEN1-284s for 14 consecutive days at 200 μL each. The state and survival of the mice were observed every day, and their body weights were recorded. Two mice died 2 h after GEN1-284s-1000 mg/kg administration. The dose was changed to 600 mg/kg, and the experiment was continued.
This experiment used a total of 6 mice. They were randomly divided into two groups of 3: a vehicle group and a GEN1-284s-1000 mg/kg group, and were intragastrically dosed once on day 0 at 200 μL each. The state and survival of the mice were observed every day, and their body weights were recorded.
Changes in body weight and survival of the mice were observed during 6 days after the single administration, and changes in body weight and the survival of the mice were observed during 14 consecutive days of high-dose GEN1-284s administration.

[1] = system: IMQ-induced psoriasis mouse model; test: IMQ-induced psoriasis mouse model (PASI scoring); assay type: in vivo, Balb/c mice; conditions: IMQ-induced psoriasis mice; GEN1-284s 30 mg/kg PO qD
Description: Method: This experiment used a total of 19 mice. A natural skin observation control (n=1). 2 cm^2 of hair was shaved off the backs of […] on day 0, the stubble was removed with a mild depilatory cream, and the original skin was photographed. 62.5 mg of IMQ was applied to each of the mice. There was a mock group (n=6), a DEX (3 mg/kg, PO., qD) group (n=6), and a GEN1-284s (30 mg/kg, PO, qD) group (n=6). On the day of modeling, administration was performed in a volume of 100 μL/20 g body weight 4 h after IMQ application. The PASI scoring method was used to score the erythema, swelling and scaling on the skin of the mice. The experiment took a total of 6 days. The first day was set to day 0. IMQ application and administration were not performed on day 5. The mice were sacrificed with carbon dioxide at the end of the experiment.
The test animals were anesthetized with isoflurane. 2 cm^2 of hair was shaved off the backs of the mice, and the stubble was removed with a depilatory cream. IMQ application was performed for a total of 5 days, from day 0 to day 4. Scoring and IMQ application were performed every morning. Administration was performed in the afternoon
Desquamation (D): means epidermal cells flake off. The severity scores of skin lesions were as follows: • 0=none; this sign cannot be confirmed by careful observation • 1=mild; this sign can be confirmed but careful observation is required • 2=moderate; this sign is more visible and can be confirmed immediately • 3=severe; this sign is marked. • 4=very severe; this sign is very marked.
Induration I: 0—skin lesions are at the same level as normal skin; • 1—skin lesions are at slightly higher levels than normal skin surface; • 2—lesions moderately stick out and have round or slope-shaped borders; • 3—skin lesions are thick and markedly stick out; • 4—skin lesions are very thick and very markedly stick out.
Erythema E: • 0—no visible erythema; • 1—light red; • 2—red; • 3—dark red; • 4—the red is very dark

[2] = system: Apoe KO mouse atherosclerosis model; test: Atherosclerosis model: aortic plaque En-face staining and plaque area; assay type: in vivo, C57BL/6 Apoe KO mice; conditions: Apoe KO mice, high-fat diet; GEN1-284s 60 mpk QD oral
Description: Method: Apoe KO mice were tested for basal blood lipid levels and divided into a normal control group and a high-fat group. After 8 weeks of housing, the mice from the high-fat group were divided into 4 groups of about 8: a normal diet group (Chow), a high-fat diet model group (HFD), an Atorvastatin positive group (HFD+atorvastatin 5 mpk, QD), and a GEN1-284s group (284-60 mpk, QD). Oral administration was performed for 8 consecutive weeks, and the effect of the compound on the following indicators in Apoe KO mice was observed: 4 blood lipid tests (TC, TG, HDL-C and LDL-C), aortic plaque En-face staining, and pathological oil red staining of the cardiac outflow tract.
Mice from the groups except for the normal diet control group (Chow) were fed with high-fat feed every day for […]. From week 9, each group was orally administered solvent or a corresponding test compound, and body weight data were recorded every day for 8 consecutive weeks. After the first 8 weeks' high-fat diet, blood samples were taken and centrifuged to separate serum, and the serum was tested for blood lipid levels (TCHO, TG, LDL-C and HDL-C). The mice were randomly grouped according to the TCHO results and body weight. During the subsequent 8 weeks of administration, blood lipid tests (TCHO, TG, LDL-C and HDL-C) were run once every 4 weeks.
At the end of the experiment, the mice were euthanized by CO2 inhalation, and their hearts and aortas (from the aortic arch to the iliac artery) were isolated. The isolated artery was dissected longitudinally from the aortic arch to the iliac artery, fixed in 4% paraformaldehyde for 30 min, synchronized with 60% isopropanol for 10 min, then stained in 60% oil red for 30 min, and then washed with 60% isopropanol 3 times for 5 min each time. Finally, the stained aorta was washed with deionized water and photographed. The proportion of red plaque areas was measured using Image Pro Plus 6.0 (Media Cybernetics, MD, US).

[3] = system: LPS-induced production of TNF-α; test: LPS-induced TNF-α production in mice (plasma ELISA); assay type: in vivo; conditions: Balb/c mice; GEN1-284s 15 mpk intragastric, LPS 1 mpk i.p. 0.5 h after administration, plasma 2 h after LPS
Description: Materials and method: A total of 18 mice were used in this experiment. The mice were divided into a MOCK group (n=6), a dexamethasone group (n=6), and a GEN1-284s 15 mpk group (n=6). LPS (1 mpk) was intraperitoneally injected 0.5 h after administration. The mice were sacrificed 2 h after the LPS injection, and blood samples were taken. The blood samples were left in EDTA-K2 anticoagulant tubes at room temperature for 20 min and centrifuged at 8000 rpm for 10 min. The plasma was separated and cryopreserved at −80° C. before analysis.
LPS (1 mpk) was intraperitoneally injected 0.5 h after administration. The mice were sacrificed 2 h after the LPS injection, and blood samples were taken. The blood samples were left in EDTA-K2 anticoagulant tubes at room temperature for 20 min and centrifuged at 8000 rpm for 10 min. The plasma was separated and cryopreserved at −80° C. before analysis.
The mice were tested for TNF-α level with ELISA kits, and the inhibitory effect of GEN1-284s on the TNF-α level was evaluated.
According to the instructions for use, a standard curve formula (y=0.0038x+0.1206, R^2=0.9956) was obtained and can be used to calculate detection values.

Structure (SMILES): O=C(Cc1ccc2ncccc2c1)N1CCC(n2c(=O)n(COP(=O)([O-])[O-])c3cccc(C(F)(F)F)c32)CC1.[Na+].[Na+] [GEN1-284 salt, (2-Oxo-3-(1-(2-(quinolin-6-yl)acetyl)piperidin-4-yl)-4-(trifluoromethyl)-2,3-dihydro-1H-benzo[d]imidazol-1-yl)methyl disodium phosphate]
- Changes in body weight after the single administration (female BALB/c mice; 1000 mg/kg P.O once on day 0, Day 0, individual mice F4-F6): 23.5 and 21.2 and 21.1
- Changes in body weight after the single administration (female BALB/c mice; 1000 mg/kg P.O once on day 0, Day 1, individual mice F4-F6): 23.8 and 21.5 and 22
- Changes in body weight after the single administration (female BALB/c mice; 1000 mg/kg P.O once on day 0, Day 2, individual mice F4-F6): 23.5 and 21.9 and 21.7
- Changes in body weight after the single administration (female BALB/c mice; 1000 mg/kg P.O once on day 0, Day 3, individual mice F4-F6): 24.1 and 21.8 and 20.3
- Changes in body weight after the single administration (female BALB/c mice; 1000 mg/kg P.O once on day 0, Day 4, individual mice F4-F6): 24.3 and 21.8 and 22.7
- Changes in body weight after the single administration (female BALB/c mice; 1000 mg/kg P.O once on day 0, Day 5, individual mice F4-F6): 23.8 and 21.6 and 23.4
- Changes in body weight after the single administration (female BALB/c mice; 1000 mg/kg P.O once on day 0, Day 6, individual mice F4-F6): 23.4 and 21.6 and 22.8
- Effect of single administration on body weight, activity and survival (female BALB/c mice; female BALB/c mice, 1000 mg/kg once by oral gavage, observed 6 days, 1000 mg/kg): did not affect the body weight or activity; also recorded: did not affect the survival and body weight of the animals
- Swelling of the skin [1]: partially ameliorate the psoriatic swelling
- Formation of atherosclerotic plaques [2]: significantly reduced the formation of atherosclerotic plaques
- Inhibition rate against LPS-induced TNF-α [3]: 36%
